Source: publication PMC12058896, “Potent antimicrobial activity of hydrogel loaded with the antimicrobial peptide, D-Bac8c^2,5 Leu, against monospecies and polymicrobial biofilms of Staphylococcus aureus and Pseudomonas aeruginosa” (Frontiers in Microbiology, 2025)
Converted amounts (≈) assume the structure as drawn. Non-standard residues stand in square brackets, D forms with d. Residues, ends and D or L forms follow the SMILES beside them.

Key:
BH1CC = assay: microbe, parasite or virus in culture; format: cell-based, Staphylococcus aureus; settings: 18 h
Method: (§1) Strains used in the study were isolates of methicillin-resistant Staphylococcus aureus (MRSA); USA300 LAC, BH1CC ([O’Neill et al., 2007]), methicillin-sensitive S. aureus (MSSA); SH1000 ([Horsburgh et al., 2002]) and BH48 ([O’Neill et al., 2007]); and Pseudomonas aeruginosa PAO1 (ATCC […]). Clinical isolates were obtained from a previous collection of isolates of infected wounds. Bacteria were grown aerobically at 37°C with shaking at 200 rpm in Brain Heart Infusion (BHI, Oxoid, Ireland). Selective media, Mannitol Salt Agar (SLS, Ireland) and MacConkey agar (SLS, Ireland), for re-isolation of bacterial strains from mixed species biofilms were used. Bolton Broth (Fannin, Ireland) supplemented with 50% bovine heparin plasma (TebuBio, UK), and 5% laked horse blood (Sigma-Aldrich, Ireland) was used to mimic in vivo conditions for static antibiofilm testing. For dynamic biofilm growth Simulated Wound Fluid (SWF) prepared as described previously with slight modification, 3% v/v fetal bovine serum in maximum recovery diluent (Merck, Ireland) was used ([Barbour et al., 2016]).
(§2) Minimum inhibitory concentration (MIC) was determined aerobically using the broth microdilution assay as recommended by the Clinical and Laboratory Standards Institute (CLSI) ([CLSI, 2018]). Briefly, 2-fold serial dilutions of the antimicrobial peptides of interest and conventional antibiotics were prepared in Mueller-Hinton broth (MHB) (Merck, Ireland) in a 96-well round bottom polypropylene plate (ThermoFisher, Ireland). Diluted bacterial suspensions in sterile PBS (Sigma, Ireland) were added to each well resulting in a final cell density of approximately 10^5 colony forming units (CFU)/mL. Microplates were incubated statically for 18 h at 37°C. In each assay, inoculated medium without antimicrobials and uninoculated medium served as growth and sterility controls, respectively. Conventional antibiotics, gentamicin (Merck, Ireland) and mupirocin (SLS, UK), were tested as comparator antimicrobials. The MIC value was defined as the lowest antimicrobial concentration showing no visible growth relative to positive (no antimicrobial agent) and negative controls (BHI alone). Experiments were conducted in triplicate, and independent replicates were performed three times to yield n = 3.

BH48 = assay: microbe, parasite or virus in culture; format: cell-based, Staphylococcus aureus; settings: 18 h
Method: as §1, §2

SH1000 = assay: microbe, parasite or virus in culture; format: cell-based, Staphylococcus aureus; settings: SH1000, 18 h
Method: as §1, §2

[1] = system: monospecies and polymicrobial biofilms of Staphylococcus aureus and Pseudomonas aeruginosa; assay: Static biofilm assays; format: cell-based
Method: Biofilms were formed under static conditions using flat 96-well polystyrene plates as described previously with few modifications ([[…] al., 2018]). Briefly, overnight cultures in BHI were washed and diluted 1:200 in fresh Bolton Broth media supplemented with 50% bovine heparin plasma, and 5% laked horse blood. From this suspension, 100 μL was used to inoculate the microtiter plate wells prior to static incubation at 37°C for 24 h, 3 days and 5 days. The media in each well was changed daily during prolonged incubation periods (3 and 5 days). […] After incubation with D-Bac8c^2,5 Leu, biofilms were washed twice with PBS and biofilm assessment was performed. For the polymicrobial biofilms, a bacterial solution ratio 1:1 of S. aureus and P. aeruginosa at 1 × 10^5 CFU/mL each was used to inoculate the wells. In each assay, inoculated medium without antimicrobials and uninoculated medium served as growth and sterility controls, respectively. […] Viability of biofilm cells after treatment was measured using resazurin-conversion assay as previously described ([Hogan et al., 2016]) (Sigma-Aldrich, Ireland). […] Fluorescence intensity was detected at excitation of 544 nm and emission of 590 nm using a fluorimeter, Perkin Elmer 2030 Multilabeled Reader, Victor 3X. […] After overnight incubation at 37°C, CFU were counted and results were expressed as log10CFU/mL.

[2] = system: monospecies and polymicrobial biofilms of S. aureus and P. aeruginosa; assay: Duckworth biofilm flow device (dynamic biofilm); format: cell-based; settings: biofilms grown 1 and 5 days under shear flow in SWF; 256 μg/mL for 6 h
Method: The Duckworth biofilm flow device was set-up and run following the method described by [Duckworth et al. (2018)]. Twelve disks of agar at 1.5% (w/v) concentration were cut using a 10 mm French press punch and placed into designated wells in the flow device. Cellulose filter (13 mm, 0.22 μm, Merck Millipore, Ireland) was placed on top of each agar disk, and was inoculated with 10 μL of the bacterial inoculum. The device was placed in an incubator at 37°C while a continuous flow of SWF was pumped into the device at a flow rate of 0.322 mL/min for 24 h or 5 days using a peristaltic pump (Supplementary Figure S2). Subsequently, topical treatment with D-Bac8c^2,5 Leu was introduced and allowed to run for a further 6 h. The biofilm formed on the cellulose filters were collected and suspended in 1 mL PBS. Colony counting was performed as described above. The Duckworth biofilm flow device was prepared and run as described above with slight modification. A solution of agarose dissolved in SWF (0.3 g in 20 mL), mixed with bacterial cultures at 10^8 CFU/mL and then supplemented with 3% FBS and 0.15% collagen (Merck, Ireland) was allowed to solidify at room temperature and then 12 disks of that was cut using a 10 mm French press punch. The disks were then placed into designated wells and experiments run as previously described. […]

HaCaT = assay: MTT cell viability; format: cell-based, human; settings: 24 h, 37°C, 5% CO2, average of three independent experiments
HUVEC = assay: MTT cell viability; format: cell-based, human; settings: 24 h, 37°C, 5% CO2, average of three independent experiments
[3] = system: pro-inflammatory cytokines; settings: cited from earlier work

With CC(C)C[C@@H](NC(=O)[C@H](N)CCCNC(=N)N)C(=O)N[C@H](Cc1c[nH]c2ccccc12)C(=O)N[C@@H](C(=O)N[C@H](CC(C)C)C(=O)N[C@H](Cc1c[nH]c2ccccc12)C(=O)N[C@H](CCCNC(=N)N)C(=O)N[C@H](CCCNC(=N)N)C(N)=O)C(C)C [D-Bac8c^2,5 Leu] (H-[dR][dL][dW][dV][dL][dW][dR][dR]-NH2; N-terminus assumed) the MIC (BH1CC) was 8 µg/mL (≈ 6.76 µM), the MIC (BH48) was 8 µg/mL (≈ 6.76 µM) and the MIC (SH1000) was 8 µg/mL (≈ 6.76 µM). For the same compound, the “reduction in bacterial load compared to untreated controls” value ([1]; static biofilm assays, summed up in abstract) was 2–3 log, the “minimum concentration needed to inactivate biofilms” value ([1]; static biofilms, 6 h treatment (Figures 1, 2 and Table 3)) was 64 µg/mL and the reduction in viability [2] was ≤ 3 log. For the same compound, the “IC50 (50% cell viability), MTT” value (HaCaT) was 426.7 µg/mL (≈ 361 µM), the “IC50 (50% cell viability), MTT” value (HUVEC) was 134 µg/mL (≈ 113 µM) and the “release of pro-inflammatory cytokines in human blood” value [3] was “did not induce”.
